Where “and” joins values, the source holds several entries; their conditions need not be identical. Identical values can stand only once. Inconclusive results and toxic doses are left out. Rule for the calls: active = survival T/C of 150% or more; inactive = T/C below 125% in these data.
Test system: CD2F1 mice, L1210 leukemia ip, survival T/C
Experiment: NCI In Vivo Anticancer Drug Screen. Data for tumor model L1210 Leukemia (intraperitoneal) in CD2F1 (CDF1) mice
Conditions: endpoint: mean survival time, higher = longer survival
Outline: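 Each value reflects a quotient of treated over vehicle control outcomes in mice with a transplanted tumor.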

[1] = dose: 100.0 mg/kg/injection, schedule: Q01DX009 (ip), vehicle: saline with Tween-80
[2] = dose: 100.0 mg/kg/injection, schedule: Q04DX003 (ip), vehicle: saline
[3] = dose: 200.0 mg/kg/injection, schedule: Q04DX003 (ip), vehicle: saline
[4] = dose: 100.0 mg/kg/injection, schedule: Q04DX003 (ip), vehicle: saline with Tween-80

Measured: T/C

Nc1ccc(N=Nc2ccccc2)c(N)n1
inactive: [1] 98 % of control | dose: 200.0 mg/kg/injection, schedule: Q01DX009 (ip), vehicle: saline with Tween-80 98 % of control | dose: 400.0 mg/kg/injection, schedule: Q01DX009 (ip), vehicle: saline with Tween-80 100 % of control

COc1ccc(C(=O)Nc2ccc(Br)cc2)cc1
inactive: dose: 100.0 mg/kg/injection, schedule: Q01DX009 (ip), vehicle: saline 93 % of control | dose: 200.0 mg/kg/injection, schedule: Q01DX009 (ip), vehicle: saline 108 % of control | dose: 400.0 mg/kg/injection, schedule: Q01DX009 (ip), vehicle: saline 98 % of control

CCC(C)CCCOC(=O)c1c(Cl)c(Cl)c(Cl)c(Cl)c1C(=O)O (centres undefined)
inactive: dose: 100.0 mg/kg/injection, schedule: Q01DX001 (ip), vehicle: saline 106 % of control | dose: 200.0 mg/kg/injection, schedule: Q01DX001 (ip), vehicle: saline 112 % of control | dose: 400.0 mg/kg/injection, schedule: Q01DX001 (ip), vehicle: saline 102 % of control

CCCCCC(O)C(O)CC(O)C(O)CCCCCCCC(=O)O (centres undefined)
inactive: [2] 94 % of control | [3] 91 % of control | dose: 400.0 mg/kg/injection, schedule: Q04DX003 (ip), vehicle: saline 100 % of control

O=C(O)C(=O)O.O=N[O-].O=N[O-].[Co+2].[NH2-].[NH2-]
inactive: dose: 25.0 mg/kg/injection, schedule: Q04DX002 (ip), vehicle: saline with Tween-80 93 % of control | dose: 50.0 mg/kg/injection, schedule: Q04DX002 (ip), vehicle: saline with Tween-80 117 % of control | dose: 100.0 mg/kg/injection, schedule: Q04DX002 (ip), vehicle: saline with Tween-80 98 % of control

CC1=C(/C=C/C(C)=C/C=C/C(C)=C/C(=O)O)C(C)(C)CCC1
inactive: dose: 8.0 mg/kg/injection, schedule: Q01DX009 (ip), vehicle: saline with Tween-80 100 % of control | dose: 16.0 mg/kg/injection, schedule: Q01DX009 (ip), vehicle: saline with Tween-80 95 % of control | dose: 32.0 mg/kg/injection, schedule: Q01DX009 (ip), vehicle: saline with Tween-80 95 % of control | dose: 64.0 mg/kg/injection, schedule: Q01DX009 (ip), vehicle: saline with Tween-80 97 % of control | [4] 105 % of control | dose: 128.0 mg/kg/injection, schedule: Q01DX009 (ip), vehicle: saline with Tween-80 87 % of control | dose: 200.0 mg/kg/injection, schedule: Q04DX003 (ip), vehicle: saline with Tween-80 100 % of control | dose: 400.0 mg/kg/injection, schedule: Q04DX003 (ip), vehicle: saline with Tween-80 97 % of control

CCCCCCCCCC[n+]1ccc(C#N)cc1
inactive: dose: 9.38 mg/kg/injection, schedule: Q01DX001 (ip), vehicle: saline 101 % of control | dose: 18.75 mg/kg/injection, schedule: Q01DX001 (ip), vehicle: saline 103 % of control

N=C(N)SCCCSC(=N)N
inactive: dose: 25.0 mg/kg/injection, schedule: Q01DX009 (ip), vehicle: saline with Tween-80 101 % of control | dose: 50.0 mg/kg/injection, schedule: Q01DX009 (ip), vehicle: saline with Tween-80 96 % of control | dose: 50.0 mg/kg/injection, schedule: Q04DX003 (ip), vehicle: saline 98 % of control | [1] 90 % of control | [2] 104 % of control | [3] 102 % of control

O=Cc1[nH]c(=S)[nH]c(=O)c1CCCc1ccccc1
inactive: dose: 25.0 mg/kg/injection, schedule: Q04DX002 (ip), vehicle: Klucel (hydroxypropylcellulose) (HPC) 96 % of control | dose: 50.0 mg/kg/injection, schedule: Q04DX002 (ip), vehicle: Klucel (hydroxypropylcellulose) (HPC) 104 % of control | dose: 100.0 mg/kg/injection, schedule: Q04DX002 (ip), vehicle: Klucel (hydroxypropylcellulose) (HPC) 93 % of control | dose: 200.0 mg/kg/injection, schedule: Q04DX002 (ip), vehicle: Klucel (hydroxypropylcellulose) (HPC) 94 % of control | dose: 400.0 mg/kg/injection, schedule: Q04DX002 (ip), vehicle: Klucel (hydroxypropylcellulose) (HPC) 90 % of control

COC(CNC1=C(C)C(=O)C2=C(C1=O)[C@H](COC(N)=O)[C@]1(OC)[C@@H]3N[C@@H]3CN21)OC
active: dose: 24.0 mg/kg/injection, schedule: Q01DX001 (ip), vehicle: water 151 % of control and 296 % of control
inactive: dose: 1.5 mg/kg/injection, schedule: Q01DX001 (ip), vehicle: water 118 % of control | dose: 3.0 mg/kg/injection, schedule: Q01DX001 (ip), vehicle: water 119 % of control and 109 % of control | dose: 6.0 mg/kg/injection, schedule: Q01DX001 (ip), vehicle: water 119 % of control | dose: 48.0 mg/kg/injection, schedule: Q01DX001 (ip), vehicle: water 86 % of control

CCN1CCCSC1=S
inactive: dose: 75.0 mg/kg/injection, schedule: Q01DX001 (ip), vehicle: other 98 % of control | dose: 150.0 mg/kg/injection, schedule: Q01DX001 (ip), vehicle: other 103 % of control

[O]=[Sb]([c]1ccccc1)([c]1ccccc1)[c]1ccccc1
inactive: [4] 101 % of control
